Source: patent US12630538B2, “Anti-viral compounds” (Aligos Therapeutics, Inc., priority 2022, dated 2026)
pEC50, pIC50: −log10 of the molar value.

Tests used:
[1] = tested on: SARS-CoV-2 B.1.1.7 lineage; assay: microbe, parasite or virus in culture; format: cell-based; conditions: Severe acute respiratory syndrome coronavirus 2, 96 h; read-out: A549-dual_ACE2_TMPRSS2 (EC50)
[2] = Cytotoxicity in HeLa cells without OC43 virus; format: cell-based; conditions: human, cell-titer-glo
Procedure: (§1) The human beta-coronavirus OC43 was purchased from ATCC (Manassas, VA) and propagated using HCT-8 human colorectal epithelial cells (ATCC). HeLa human cervical epithelial cells (ATCC) were used as susceptible host cell lines and were cultured using EMEM media, supplemented with 10% fetal bovine serum (FBS), 1% (v/v) penicillin/streptomycin (P/S), 1% (v/v) HEPES and 1% (v/v) cellgro Glutagro™ supplement (all Corning, Manassas, VA) at 37° C. For the OC43 antiviral assay, 1.5×10^4 HeLa cells per well were plated in 100 μL complete media in white 96-well plates with clear bottoms at 37° C. for up to 24 h to facilitate attachment and allow cells to recover from seeding stresses. Next day, the cell culture medium was removed. […] 100 μL of OC43 virus stock was diluted to a concentration known to produce optimal cytopathic effect, inducing 80-90% reduction in cell viability. 96-well plates were incubated for 6 (HeLa) days at 33° C.; each plate contains uninfected control wells as well as virus-infected wells that were not treated with compound. Cytotoxicity plates without the addition of OC43 virus were carried out in parallel. At the end of the incubation period, 100 μL cell culture supernatant was replaced with 100 μL cell-titer-glo reagent (Promega, Madison, WI) and incubated for at least 10 min at rt prior to measuring luminescence. Luminescence was measured on a Perkin Elmer (Waltham, MA) Envision plate reader. Antiviral % inhibition was calculated as follows: [(Compound treated cells infected sample)−(no compound infected control)]/[(Uninfected control)−(no compound infected control)]*100; Using GraphPad (San Diego, CA) prism software version 8.3.1, the antiviral dose-response plot was generated as a sigmoidal fit, log(inhibitor) vs response-variable slope (four parameters) model and the EC50 was calculated which is the predicted compound concentration corresponding to a 50% inhibition of the viral cytopathic effect.

[3] = molecular target: T1, human cathepsin L (Homo sapiens, UniProt P07711); assay: Cathepsin L assay; format: biochemical; conditions: 10 pM human cathepsin L, substrate Z-FR-AMC 2 μM
T1 construct: purchased R&D Systems
Procedure: For the cathepsin L assay, 10 pM of human cathepsin L (R&D Systems; Minneapolis, MN) was preincubated for 30 mins with test compounds. Reactions were initiated by the addition of a peptide substrate Z-FR-AMC (final concentration 2 μM, Anaspec; Fremont, CA). Fluorescence was measured at 2-minute intervals for 30 mins using a 355/460 excitation/emission filter module on an Envision plate reader (Perkin Elmer; Waltham, MA). The IC50 values were calculated for each assay by fitting the curves using a four-parameter equation in GraphPad Prism.

[4] = molecular target: T2, SARS-Cov-2 3CLpro (Severe acute respiratory syndrome coronavirus 2, UniProt P0DTD1); assay: SARS-Cov-2 3CLpro and HRV3C duplex assay (SAMDI-MS): 3CLpro; format: biochemical; conditions: 30 mins preincubation
T2 construct: 3CLpro and HRV3C was added using a Multidrop Combi

[5] = molecular target: T3, HRV3C (Human rhinovirus 14, UniProt P03303); assay: SARS-Cov-2 3CLpro and HRV3C duplex assay (SAMDI-MS): HRV3C; format: biochemical; conditions: 30 mins preincubation, read-out: HRV (IC50)
T3 construct: 3CLpro and HRV3C was added using a Multidrop Combi

[6] = tested on: human beta-coronavirus OC43; assay: OC43 coronavirus antiviral assay in HeLa cells; format: cell-based; conditions: Betacoronavirus 1, 144 h, 6 days at 33° C., viral cytopathic effect, cell-titer-glo
Procedure: as §1

[7] = in vitro; conditions: human, A549-dual ACE2 TMPRSS2 cells without virus
[8] = molecular target: 3CLpro (Severe acute respiratory syndrome coronavirus 2, UniProt P0DTD1); conditions: cited from earlier work
[9] = tested on: SARS-CoV-2; conditions: cited from earlier work

T3 sequence (P03303 1538-1719): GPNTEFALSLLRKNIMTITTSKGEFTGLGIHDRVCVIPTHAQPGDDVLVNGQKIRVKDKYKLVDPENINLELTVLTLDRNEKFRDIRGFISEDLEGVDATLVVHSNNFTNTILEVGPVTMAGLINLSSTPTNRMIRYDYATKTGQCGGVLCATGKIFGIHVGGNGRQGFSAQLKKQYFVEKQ
T1 sequence (P07711 114-333): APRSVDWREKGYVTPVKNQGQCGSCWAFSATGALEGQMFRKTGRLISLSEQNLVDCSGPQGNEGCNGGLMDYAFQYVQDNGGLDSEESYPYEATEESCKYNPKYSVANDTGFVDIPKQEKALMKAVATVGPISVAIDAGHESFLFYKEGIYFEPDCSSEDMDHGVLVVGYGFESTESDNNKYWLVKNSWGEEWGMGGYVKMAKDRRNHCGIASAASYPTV

Structure (SMILES) | pEC50 [1] | CC50 at 6 days [2] [nM] | pIC50 [3] | pIC50 [4] | pIC50 [5] | pEC50 [6] | CC50 [7] [nM] | inhibitory effect on the 3CLpro [8] | antiviral effect when TMPRSS2 was expressed ([9]; A549-ACE2 expressing TMPRSS2) | inhibition of SARS-CoV-2 ([9]; VeroE6, A549-ACE2 and/or HeLa-ACE2)
COC(=O)N[C@H](C(=O)N1C[C@H]2[C@@H]([C@H]1C(=O)N[C@H](C#N)C[C@@H]1CCNC1=O)[C@H]1C=C[C@@H]2C1)C(C)(C)C [Compound 1, methyl ((S)-1-((1S,3aR,4S,7R,7aS)-1-(((S)-1-cyano-2-((S)-2-oxopyrrolidin-3-yl)ethyl)carbamoyl)-1,3,3a,4,7,7a-hexahydro-2H-4,7-methanoisoindol-2-yl)-3,3-dimethyl-1-oxobutan-2-yl)carbamate] | > 7.00 | > 100000 | ≤ 5.00 | > 7.70 | < 6.30 | > 7.00 | > 1000 |  |  | 
COC(=O)N[C@H](C(=O)N1C[C@@H]2[C@H]3C[C@@H]([C@@H]2[C@H]1C(=O)N[C@H](C#N)C[C@@H]1CCNC1=O)[C@H](F)C3)C(C)(C)C [Compound 2, methyl N-[(2S)-1-[(1S,2R,3S,6R,7S,9R)-3-{[(1S)-1-cyano-2-[(3S)-2-oxopyrrolidin-3-yl]ethyl]carbamoyl}-9-fluoro-4-azatricyclo[5.2.1.0^{2,6}]decan-4-yl]-3,3-dimethyl-1-oxobutan-2-yl]carbamate] | 6.00 to 7.00 | > 100000 | ≤ 5.00 | > 7.70 | < 6.30 | > 7.00 | > 1000 |  |  | 
CC(C)(C)[C@H](NC(=O)OC1CC1)C(=O)N1C[C@@H]2[C@H]3C[C@@H]([C@@H]2[C@H]1C(=O)N[C@H](C#N)C[C@@H]1CCNC1=O)[C@H](F)C3 [Compound 3, cyclopropyl ((S)-1-((1S,3aR,4S,6R,7S,7aR)-1-(((S)-1-cyano-2-((S)-2-oxopyrrolidin-3-yl)ethyl)carbamoyl)-6-fluorooctahydro-2H-4,7-methanoisoindol-2-yl)-3,3-dimethyl-1-oxobutan-2-yl)carbamate] | > 7.00 | > 100000 | ≤ 5.00 | > 7.70 | < 6.30 | > 7.00 | > 1000 |  |  | 
CN1CCN(C(=O)N[C@@H](Cc2ccccc2)C(=O)N[C@H](/C=C/S(=O)(=O)c2ccccc2)CCc2ccccc2)CC1 [Compound K117777] |  |  |  |  |  |  |  | lacks an inhibitory effect | abolished | potent inhibition
